This note sets out measurements from ChEMBL document CHEMBL5154722, “Identification of new potent anticancer derivatives through simplifying the core structure and modification on their 14- hydroxyl group from oridonin” (Eur J Med Chem, 2022).

Assay type in all cases: functional, cell-based
One assay relates to K562. The experiment in a line: Antiproliferative activity against human K562 cells assessed as reduction in cell viability incubated for 72 hrs by MTT assay. The following applies: K562, 72 h. A general note: Formazan colour is commonly taken as a measure of viable cells.
Another assay deals with MDA-MB-231. The experiment in a line: Antiproliferative activity against human MDA-MB-231 cells assessed as reduction in cell viability incubated for 72 hrs by MTT assay. The following applies: MDA-MB-231, 72 h.
In the next assay the test system is SMMC-7721. Put plainly: Antiproliferative activity against human […] cells assessed as reduction in cell viability incubated for 72 hrs by MTT assay. The following applies: SMMC-7721, 72 h.
The test system of a further assay is MCF7. Put plainly: Antiproliferative activity against human MCF7 cells assessed as reduction in cell viability incubated for 72 hrs by MTT assay. The following applies: MCF7, 72 h.

As usually defined, the IC50 is the point on the concentration scale where inhibition reaches its midpoint. Regarding `C=C1C(=O)[C@]23[C@H](OC(=O)/C=C/C)[C@H]1CC[C@H]2[C@]12CCCC(C)(C)[C@H]1[C@H](O)[C@@]3(O)OC2`, in the assay on K562, the IC50 amounted to 390 nM.

Consider `C=C1C(=O)[C@]23[C@H](OC(=O)c4cccc(C)c4)[C@H]1CC[C@H]2[C@]12CCCC(C)(C)[C@H]1[C@H](O)[C@@]3(O)OC2`, for which the IC50 in the assay with K562 stood at 2830 nM.

For the compound `C=C1C(=O)[C@]23[C@H](OC(=O)/C=C/c4cccc(Br)n4)[C@H]1CC[C@H]2[C@]12C=CCC(C)(C)[C@H]1[C@H](O)[C@@]3(O)OC2`, in the assay on K562, the half-inhibitory concentration (IC50) turned out to be 1370 nM.

As for `C=C1C(=O)[C@]23[C@H](OC(=O)C4CCCCC4)[C@H]1CC[C@H]2[C@]12CCCC(C)(C)[C@H]1[C@H](O)[C@@]3(O)OC2`, the IC50 in the assay with K562 was determined as 4050 nM.

In the case of `C=C1C(=O)[C@]23[C@H](OC(=O)/C=C/c4ccsc4)[C@H]1CC[C@H]2[C@]12C=CCC(C)(C)[C@H]1[C@H](O)[C@@]3(O)OC2`, the IC50 in the assay with K562 was determined as 1340 nM.

Turning to `C=C1C(=O)[C@]23[C@H](O)[C@H]1CC[C@H]2[C@]12CCCC(C)(C)[C@H]1C[C@@]3(O)OC2`, the IC50 in the assay with K562 turned out to be 1980 nM; in the assay with MDA-MB-231, 2510 nM; in the assay on SMMC-7721, 2960 nM; in the assay with MCF7 it was 2970 nM.

As for `C=C1C(=O)[C@]23[C@H](OC(=O)c4ccccc4C)[C@H]1CC[C@H]2[C@]12CCCC(C)(C)[C@H]1[C@H](O)[C@@]3(O)OC2`, the IC50 with K562 was 3290 nM.

In the case of `C=C1C(=O)[C@]23[C@H](OC(=O)CCc4ccccc4)[C@H]1CC[C@H]2[C@]12C=CCC(C)(C)[C@H]1[C@H](O)[C@@]3(O)OC2`, the IC50 in the assay on K562 came to 2740 nM.

On to `C=C1C(=O)[C@]23[C@H](OC(=O)/C=C/c4ccsc4)[C@H]1CC[C@H]2[C@]12CCCC(C)(C)[C@H]1C[C@@]3(O)OC2`, for which the IC50 with K562 stood at 800 nM.

Take `C=C1C(=O)[C@]23[C@H](OC(=O)/C=C/c4ccnc(F)c4)[C@H]1CC[C@H]2[C@]12CCCC(C)(C)[C@H]1C[C@@]3(O)OC2`: the half-inhibitory concentration (IC50) in the assay with K562 came to 900 nM.

On to `C=C1C(=O)[C@]23[C@H](OC(=O)/C=C/c4ccccc4)[C@H]1CC[C@H]2[C@]12C=CCC(C)(C)[C@H]1[C@H](O)[C@@]3(O)OC2`, for which, in the assay with K562, the IC50 was 710 nM.

Turning to `C=C1C(=O)[C@]23[C@H](OC(=O)/C=C/c4cccnc4)[C@H]1CC[C@H]2[C@]12C=CCC(C)(C)[C@H]1[C@H](O)[C@@]3(O)OC2`, in the assay with K562, the IC50 amounted to 540 nM.

Regarding `C=C1C(=O)[C@]23[C@H](OC(=O)/C=C/c4cncnc4)[C@H]1CC[C@H]2[C@]12C=CCC(C)(C)[C@H]1[C@H](O)[C@@]3(O)OC2`, in the assay on K562, the IC50 worked out at 460 nM.

As for `C=C1C(=O)[C@@]23C(=O)[C@@H](OC(C)=O)[C@@H]4C(C)(C)CC=C[C@@]4(COC(C)=O)[C@@H]2CC[C@@H]1[C@H]3OC(C)=O`, the IC50 in the assay with K562 was found to be 1670 nM; in the assay with MDA-MB-231, 3140 nM; in the assay with SMMC-7721 it was 2920 nM; in the assay with MCF7 it was 3570 nM.

`C=C1C(=O)[C@]23[C@H](OC(=O)C=C(C)C)[C@H]1CC[C@H]2[C@]12CCCC(C)(C)[C@H]1[C@H](O)[C@@]3(O)OC2`: in the assay on K562, the half-maximal inhibitory concentration (IC50) was 900 nM.

`C=C1C(=O)[C@]23[C@H](OC(=O)/C=C/c4cccc5[nH]ccc45)[C@H]1CC[C@H]2[C@]12C=CCC(C)(C)[C@H]1[C@H](O)[C@@]3(O)OC2`: the IC50 with K562 was determined as 2580 nM.

For the compound `C=C1C(=O)[C@]23[C@H](OC(=O)/C=C/c4ccccn4)[C@H]1CC[C@H]2[C@]12C=CCC(C)(C)[C@H]1[C@H](O)[C@@]3(O)OC2`, the IC50 with K562 amounted to 1600 nM.

As for `C=C1C(=O)[C@]23[C@H](OC(=O)/C=C/c4ccc5ccccc5c4)[C@H]1CC[C@H]2[C@]12C=CCC(C)(C)[C@H]1[C@H](O)[C@@]3(O)OC2`, the IC50 in the assay with K562 came out at 2880 nM.

Turning to `C=C1C(=O)[C@]23[C@H](OC(=O)CCCc4ccccc4)[C@H]1CC[C@H]2[C@]12C=CCC(C)(C)[C@H]1[C@H](O)[C@@]3(O)OC2`, the IC50 in the assay on K562 was 3640 nM.

In the case of `C=C1C(=O)[C@]23[C@H](OC(=O)c4ccc(C)cc4)[C@H]1CC[C@H]2[C@]12CCCC(C)(C)[C@H]1C[C@@]3(O)OC2`, the IC50 with K562 was 5460 nM.

Regarding `C=C1C(=O)[C@]23[C@H](OC(=O)/C=C/c4ccc5ccccc5c4)[C@H]1CC[C@H]2[C@]12CCCC(C)(C)[C@H]1[C@H](O)[C@@]3(O)OC2`, the IC50 in the assay with K562 was determined as 3700 nM.

`C=C1C(=O)[C@]23[C@H](O)[C@H]1CC[C@H]2[C@]12CCCC(C)(C)[C@H]1[C@H](O)[C@@]3(O)OC2`: the IC50 turned out to be 1230 nM with K562, 2040 nM in the assay on MDA-MB-231, 3140 nM in the assay with SMMC-7721 and 2800 nM with MCF7.

Regarding `C=C1C(=O)[C@@]23C(CC[C@@H]1[C@H]2OC(=O)c1ccc(F)cc1)[C@]12CCCC(C)(C)C1[C@H](O)[C@@]3(O)OC2` (stereo partly drawn), the IC50 in the assay on K562 was 4630 nM.

Consider `C=C1C(=O)[C@]23[C@H](OC(=O)/C=C/c4ccc(OC)nc4)[C@H]1CC[C@H]2[C@]12C=CCC(C)(C)[C@H]1[C@H](O)[C@@]3(O)OC2`, for which, in the assay with K562, the IC50 worked out at 1520 nM.

As to `C=C1C(=O)[C@]23[C@H](OC(=O)/C=C/c4ccccc4)[C@H]1CC[C@H]2[C@]12CCCC(C)(C)[C@H]1[C@H](O)[C@@]3(O)OC2`, the IC50 in the assay with K562 worked out at 1760 nM.

On to `C=C1C(=O)[C@]23[C@H](OC(=O)c4ccc(C)cc4)[C@H]1CC[C@@]2(C)[C@]12CCCC(C)(C)[C@H]1[C@H](O)[C@@]3(O)OC2`, for which the IC50 in the assay with K562 was 3010 nM.

Turning to `C=C1C(=O)[C@]23[C@H](OC(C)=O)[C@H]1CC[C@H]2[C@]12CCCC(C)(C)[C@H]1C[C@@]3(O)OC2`, in the assay on K562, the half-maximal inhibitory concentration (IC50) came out at 1200 nM.

Consider `C=C1C(=O)[C@]23[C@H](OC(=O)/C=C(\C)c4ccccc4)[C@H]1CC[C@H]2[C@]12CCCC(C)(C)[C@H]1[C@H](O)[C@@]3(O)OC2`, for which the IC50 in the assay with K562 is 5320 nM.

Take `C=C1C(=O)[C@]23[C@H](O)[C@H]1CC[C@H]2[C@]12C=CCC(C)(C)[C@H]1[C@H](O)[C@@]3(O)OC2`: the IC50 with K562 is 2040 nM; in the assay on MDA-MB-231 it was 1880 nM; with SMMC-7721 it was 3760 nM; in the assay with MCF7 it was 3500 nM.

In the case of `C=C1C(=O)[C@]23[C@H](OC(=O)/C=C/c4ccc(F)nc4)[C@H]1CC[C@H]2[C@]12C=CCC(C)(C)[C@H]1[C@H](O)[C@@]3(O)OC2`, the IC50 in the assay with K562 is 830 nM.

Consider `C=C1C(=O)[C@]23[C@H](OC(C)=O)[C@H]1CC[C@H]2[C@]12CCCC(C)(C)[C@H]1[C@H](O)[C@@]3(O)OC2`, for which the IC50 with K562 came to 5340 nM.

Regarding `C=C1C(=O)[C@]23[C@H](OC(=O)/C=C/c4ccco4)[C@H]1CC[C@H]2[C@]12CCCC(C)(C)[C@H]1C[C@@]3(O)OC2`, the IC50 in the assay on K562 came to 1440 nM.

Take `C=C1C(=O)[C@]23[C@H](OC(=O)/C=C/c4ccccc4)[C@H]1CC[C@H]2[C@]12CCCC(C)(C)[C@H]1C[C@@]3(O)OC2`: the IC50 in the assay on K562 was determined as 2740 nM.

In the case of `C=C1C(=O)[C@]23[C@H](OC(=O)/C=C/c4cccc5c4OCO5)[C@H]1CC[C@H]2[C@]12C=CCC(C)(C)[C@H]1[C@H](O)[C@@]3(O)OC2`, the IC50 with K562 was 2800 nM.

Regarding `C=C1C(=O)[C@]23[C@H](OC(=O)/C=C/c4ccco4)[C@H]1CC[C@H]2[C@]12C=CCC(C)(C)[C@H]1[C@H](O)[C@@]3(O)OC2`, the IC50 in the assay on K562 came out at 1520 nM.

For `C=C1C(=O)[C@]23[C@H](OC(=O)/C=C/c4ccc5ccccc5n4)[C@H]1CC[C@H]2[C@]12C=CCC(C)(C)[C@H]1[C@H](O)[C@@]3(O)OC2`, the IC50 in the assay on K562 was 2900 nM.

Regarding `C=C1C(=O)[C@]23[C@H](OC(=O)/C=C/c4cccnc4)[C@H]1CC[C@H]2[C@]12CCCC(C)(C)[C@H]1C[C@@]3(O)OC2`, the IC50 in the assay on K562 is 560 nM.

As to `C=C1C(=O)[C@]23[C@H](OC(=O)/C=C/c4ccc[nH]4)[C@H]1CC[C@H]2[C@]12C=CCC(C)(C)[C@H]1[C@H](O)[C@@]3(O)OC2`, in the assay on K562, the IC50 came out at 1510 nM.

Turning to `C=C1C(=O)[C@]23[C@H](OC(=O)/C=C/c4ccc[nH]4)[C@H]1CC[C@H]2[C@]12CCCC(C)(C)[C@H]1[C@H](O)[C@@]3(O)OC2`, the IC50 in the assay on K562 amounted to 1320 nM.

`C=C1C(=O)[C@]23[C@H](OC(=O)c4ccccc4)[C@H]1CC[C@H]2[C@]12CCCC(C)(C)[C@H]1[C@H](O)[C@@]3(O)OC2`: in the assay with K562, the IC50 was found to be 3450 nM.

Consider `C=C1C(=O)[C@]23[C@H](OC(=O)c4ccc(Br)cc4)[C@H]1CC[C@H]2[C@]12CCCC(C)(C)[C@H]1[C@H](O)[C@@]3(O)OC2`, for which, in the assay on K562, the IC50 is 4380 nM.

`C=C1C(=O)[C@@]23C(=O)[C@@H](OC(C)=O)[C@@H]4C(C)(C)CCC[C@@]4(COC(C)=O)[C@@H]2CC[C@@H]1[C@H]3OC(C)=O`: the IC50 in the assay on K562 was determined as 1030 nM; with MDA-MB-231 it was 1590 nM; in the assay with SMMC-7721, 2270 nM; in the assay with MCF7, 2060 nM.

Regarding `C=C1C(=O)[C@]23[C@H](OC(=O)/C=C/c4cccnc4Br)[C@H]1CC[C@H]2[C@]12C=CCC(C)(C)[C@H]1[C@H](O)[C@@]3(O)OC2`, in the assay on K562, the IC50 was 3090 nM.
